Reference: patent publication US20240390438A1, “PROBIOTICS SEPARATED FROM RABBIT FECES AND FOOD CONTAINING PROBIOTICS” (AGENT Innovation Co., Ltd., priority 2021, published 2024)
In brackets after ≈: the same amount, converted by molar mass. Where two headings read alike, the source gives them in different places.

Columns and labels:
Colony LP19 = assay: Antibiotic susceptibility test; assay type: cell-based, Lactiplantibacillus Plantarum; conditions: for MIC: Lactiplantibacillus plantarum, LP19, 24 h; for Minimum inhibitory concentration of the antibiotic to LP19: 96-well, 37 C 24 h, OD600
Source text: (§1) To test bacterial susceptibility to antibiotics, such as Aminoglycosides antibiotics, Sulfonamide antibiotics, Quinolone antibiotics, Ampicillin, Cefotaxime, Chloramphenicol, Erythromycin, Rifampicin and Tetracycline, the experimental protocol were as follow. Further, the Quinolone antibiotics comprise Ciprofloxacin, the Aminoglycosides antibiotics comprise Kanamycin and […], and the Sulfonamide antibiotics comprise Sulfamethoxazole. […] The initial absorbance at 600 nm (OD600) of each well was recorded. Then, the 96-well plates were placed at 37° C. and cultured for 24 hours. Next, the OD600 of each well was measured again to determine minimum inhibitory concentration.

Colony LP1 = assay: Antibiotic susceptibility test; assay type: cell-based, Lactiplantibacillus Plantarum; conditions: for MIC: Lactiplantibacillus plantarum, LP1, 24 h; for Minimum inhibitory concentration of the antibiotic to LP1: 96-well, 37 C 24 h, OD600
Source text: as §1

Colony LP2 = assay: Antibiotic susceptibility test; assay type: cell-based, Lactiplantibacillus Plantarum; conditions: for MIC: Lactiplantibacillus plantarum, LP2, 24 h, read-out: Minimum inhibitory concentration of the antibiotic to LP2
Source text: as §1

Colony LP5 = assay: Antibiotic susceptibility test; assay type: cell-based, Lactiplantibacillus Plantarum; conditions: for MIC: Lactiplantibacillus plantarum, LP5, 24 h; for Minimum inhibitory concentration of the antibiotic to LP5: 96-well, 37 C 24 h, OD600
Source text: as §1

Colony PTA22 = assay: Antibiotic susceptibility test; assay type: cell-based, Lactiplantibacillus Plantarum; conditions: for MIC: Lactiplantibacillus plantarum, PTA22, 24 h; for Minimum inhibitory concentration of the antibiotic to PTA22: 96-well, 37 C 24 h, OD600
Source text: as §1

L. plantarum 299 = conditions: from Klarin et al., 2019; cited from earlier work
L. plantarum 299v = conditions: from Klarin et al., 2019; cited from earlier work
L. pl 24-2L = conditions: from Georgieva et al., 2015; cited from earlier work
L. pl 24-5D = conditions: from Georgieva et al., 2015; cited from earlier work
species L. plantarum = conditions: EFSA (2005); cited from earlier work
Bacillus cereus = assay: Minimum inhibitory concentration and minimum bacterial concentration; assay type: cell-based; conditions: antibiotics
Method: (§2) Minimum inhibitory concentration (MIC) refers to the minimum concentration at which the development of bacteria can be blocked and antibacterial resistance can be observed after cultured. The lower MIC means the better effect on bacteria.
(§3) The supernatants of the cultured colonies described above were collected, as cell-free solutions (CFSs), by centrifuge at 5000 rpm after cultured the colonies in a nutrient broth and shaking at 37° C. for 48 hours.
(§4) Next, 100 μL each of the CFSs and 100 μL bacterial solutions of the pathogenic bacteria were respectively added to each well of a 96-well plate. Thus, the total volume in each well was 200 μL. The tested pathogenic bacteria included Salmonella enterica, Shigella sonnei, Klebsiella pneumoniae, Streptococcus pneumoniae, Bacillus cereus, Staphylococcus aureus, Pseudomonas aeruginosa, and Escherichia coli.
(§5) As well, 100 μL each of the nutrient broth containing Ampicillin or Kanamycin and 100 μL bacterial solutions of the pathogenic bacteria were respectively added to each well of a 96-well plate. Thus, the total volume in each well was 200 μL.
(§6) Then, initial values of OD600 in each well were recorded. Subsequently, the 96-well plates were cultured at 37° C. for 24 hours, and the OD600 values thereof were re-recorded for determining the MICs of each colony described above.
(§7) Finally, 100 μL CFSs of the next three concentrations […] MIC were taken to be plated on nutrient agar and then cultured at 37° C. for 48-72 hours. The concentrations of the CFSs that no colonies grown on nutrient agar were determined to be the minimum bacterial concentration (MBCs).

Escherichia coli (ETEC) = assay: as above; assay type: cell-based; conditions: antibiotics
Method: as §2, §3, §4, §5, §6, §7

Klebsiella pneumoniae = assay: as above; assay type: cell-based; conditions: antibiotics
Method: as §2, §3, §4, §5, §6, §7

Pseudomonas aeruginosa = assay: as above; assay type: cell-based; conditions: antibiotics
Method: as §2, §3, §4, §5, §6, §7

Shigella sonnei = assay: as above; assay type: cell-based; conditions: antibiotics
Method: as §2, §3, §4, §5, §6, §7

Staphylococcus aureus = assay: as above; assay type: cell-based; conditions: antibiotics
Method: as §2, §3, §4, §5, §6, §7

Streptococcus pneumoniae = assay: as above; assay type: cell-based; conditions: antibiotics
Method: as §2, §3, §4, §5, §6, §7

[1] = read-out: Minimum inhibitory concentration of the antibiotic to LP19, 96-well, 37 C 24 h, OD600
[2] = read-out: Minimum inhibitory concentration of the antibiotic to LP1, 96-well, 37 C 24 h, OD600
[3] = read-out: Minimum inhibitory concentration of the antibiotic to LP5, 96-well, 37 C 24 h, OD600
[4] = read-out: Minimum inhibitory concentration of the antibiotic to PTA22, 96-well, 37 C 24 h, OD600
[5] = plated on nutrient agar 48-72 h

| SMILES | MIC (Colony LP19; [1]) [µg/mL] | MIC (Colony LP1; [2]) [µg/mL] | MIC (Colony LP2; 96-well, 37 C 24 h, OD600) [µg/mL] | MIC (Colony LP5; [3]) [µg/mL] | MIC (Colony PTA22; [4]) [µg/mL] | Minimum inhibitory concentration of the antibiotic to L. plantarum 299 (L. plantarum 299) [µg/mL] | Minimum inhibitory concentration of the antibiotic to L. plantarum 299v (L. plantarum 299v) [µg/mL] | Minimum inhibitory concentration of the antibiotic to L. pl 24-2L (L. pl 24-2L) [µg/mL] | Minimum inhibitory concentration of the antibiotic to L. pl 24-5D (L. pl 24-5D) [µg/mL] | other results |
| --- | --- | --- | --- | --- | --- | --- | --- | --- | --- | --- |
| CO/N=C(\C(=O)N[C@@H]1C(=O)N2C(C(=O)O)=C(COC(C)=O)CS[C@H]12)c1csc(N)n1 [Cefotaxime] | < 0.125 | < 0.125 | < 0.125 | < 0.125 | < 0.125 | 0.094 | 0.094 |  |  |  |
| O=C(N[C@H](CO)[C@H](O)c1ccc([N+](=O)[O-])cc1)C(Cl)Cl [Chloramphenicol] | 16 (≈ 49.5 µM) | 8 (≈ 24.8 µM) | 8 (≈ 24.8 µM) | 16 (≈ 49.5 µM) | 32 (≈ 99 µM) | 2 | 2 | 4 | 6 | EFSA, MIC breakpoints species L. plantarum (species L. plantarum): 8 µg/mL |
| O=C(O)c1cn(C2CC2)c2cc(N3CCNCC3)c(F)cc2c1=O [Ciprofloxacin] | > 128 | > 128 | > 128 | > 128 | > 128 |  |  |  |  |  |
| CCN1CCN(c2cc3c(cc2F)c(=O)c(C(=O)O)cn3C2CC2)CC1 [Enrofloxacin] | 64 (≈ 178 µM) | 64 (≈ 178 µM) | 64 (≈ 178 µM) | 64 (≈ 178 µM) | 64 (≈ 178 µM) |  |  |  |  | MIC (Bacillus cereus; 37 C 24 h, OD600): 8 µg/mL (≈ 22.3 µM); MBC (Bacillus cereus; [5]): 8 µg/mL (≈ 22.3 µM); MIC (Escherichia coli (ETEC); 37 C 24 h, OD600): 4 µg/mL (≈ 11.1 µM); MBC (Escherichia coli (ETEC); [5]): 8 µg/mL (≈ 22.3 µM); MIC (Klebsiella pneumoniae; 37 C 24 h, OD600): 32 µg/mL (≈ 89 µM); MBC (Klebsiella pneumoniae; [5]): 32 µg/mL (≈ 89 µM); MIC (Pseudomonas aeruginosa; 37 C 24 h, OD600): 16 µg/mL (≈ 44.5 µM); MBC (Pseudomonas aeruginosa; [5]): 16 µg/mL (≈ 44.5 µM); MIC (Shigella sonnei; 37 C 24 h, OD600): < 0.125 µg/mL; MBC (Shigella sonnei; [5]): < 0.125 µg/mL; MIC (Staphylococcus aureus; 37 C 24 h, OD600): 1 µg/mL (≈ 2.78 µM); MBC (Staphylococcus aureus; [5]): 1 µg/mL (≈ 2.78 µM); MIC (Streptococcus pneumoniae; 37 C 24 h, OD600): 0.25 µg/mL (≈ 0.696 µM); MBC (Streptococcus pneumoniae; [5]): 0.5 µg/mL (≈ 1.39 µM) |
| CC[C@H]1OC(=O)[C@H](C)[C@@H](O[C@H]2C[C@@](C)(OC)[C@@H](O)[C@H](C)O2)[C@H](C)[C@@H](O[C@@H]2O[C@H](C)C[C@H](N(C)C)[C@H]2O)[C@](C)(O)C[C@@H](C)C(=O)[C@H](C)[C@@H](O)[C@]1(C)O [Erythromycin] | 2 (≈ 2.73 µM) | 1 (≈ 1.36 µM) | 2 (≈ 2.73 µM) | 2 (≈ 2.73 µM) | 4 (≈ 5.45 µM) | 0.75 | 1 | 0.75 | 0.75 | EFSA, MIC breakpoints species L. plantarum (species L. plantarum): 4 µg/mL |
| CO[C@H]1/C=C/O[C@@]2(C)Oc3c(C)c(O)c4c(O)c(c(/C=N/N5CCN(C)CC5)c(O)c4c3C2=O)NC(=O)/C(C)=C\C=C\[C@H](C)[C@H](O)[C@@H](C)[C@@H](O)[C@@H](C)[C@H](OC(C)=O)[C@@H]1C [Rifampicin] | 2 (≈ 2.43 µM) | 1 (≈ 1.22 µM) | 1 (≈ 1.22 µM) | 1 (≈ 1.22 µM) | 2 (≈ 2.43 µM) |  |  |  |  |  |
| Cc1cc(NS(=O)(=O)c2ccc(N)cc2)no1 [Sulfamethoxazole] | > 256 | > 256 | > 256 | > 256 | > 256 |  |  |  |  | Minimum inhibitory concentration of the antibiotic to LP19 (Colony LP19): >256 µg/mL; Minimum inhibitory concentration of the antibiotic to LP1 (Colony LP1): >256 µg/mL; Minimum inhibitory concentration of the antibiotic to LP2 (Colony LP2; 96-well, 37 C 24 h, OD600): >256 µg/mL; Minimum inhibitory concentration of the antibiotic to LP5 (Colony LP5): >256 µg/mL; Minimum inhibitory concentration of the antibiotic to PTA22 (Colony PTA22): >256 µg/mL |
| CN(C)[C@@H]1C(O)=C(C(N)=O)C(=O)[C@@]2(O)C(O)=C3C(=O)c4c(O)cccc4[C@@](C)(O)[C@H]3C[C@@H]12 [Tetracycline] | 32 (≈ 72 µM) | 32 (≈ 72 µM) | 32 (≈ 72 µM) | 32 (≈ 72 µM) | 64 (≈ 144 µM) |  |  |  |  |  |
| CN[C@H](CC(C)C)C(=O)N[C@H]1C(=O)N[C@@H](CC(N)=O)C(=O)N[C@H]2C(=O)N[C@H]3C(=O)N[C@H](C(=O)N[C@H](C(=O)O)c4cc(O)cc(O)c4-c4cc3ccc4O)[C@H](O)c3ccc(c(Cl)c3)Oc3cc2cc(c3O[C@@H]2O[C@H](CO)[C@@H](O)[C@H](O)[C@H]2O[C@H]2C[C@](C)(N)[C@H](O)[C@H](C)O2)Oc2ccc(cc2Cl)[C@H]1O [Vancomycin] |  |  |  |  |  | >256 | >256 | >256 | >256 | Minimum inhibitory concentration of the antibiotic to LP19 (Colony LP19): >256 µg/mL; MIC (Colony LP19; read-out: Minimum inhibitory concentration of the antibiotic to LP19): > 256 µg/mL; Minimum inhibitory concentration of the antibiotic to LP1 (Colony LP1): >256 µg/mL; MIC (Colony LP1; read-out: Minimum inhibitory concentration of the antibiotic to LP1): > 256 µg/mL; Minimum inhibitory concentration of the antibiotic to LP2 (Colony LP2; 96-well, 37 C 24 h, OD600): >256 µg/mL; MIC (Colony LP2): > 256 µg/mL; Minimum inhibitory concentration of the antibiotic to LP5 (Colony LP5): >256 µg/mL; MIC (Colony LP5; read-out: Minimum inhibitory concentration of the antibiotic to LP5): > 256 µg/mL; Minimum inhibitory concentration of the antibiotic to PTA22 (Colony PTA22): >256 µg/mL; MIC (Colony PTA22; read-out: Minimum inhibitory concentration of the antibiotic to PTA22): > 256 µg/mL |
